Source: US20240287007A1, “N-(1,3,4-OXADIAZOL-2-YL)PHENYLCARBOXAMIDES AS HERBICIDES” (BAYER AKTIENGESELLSCHAFT, priority 2021, published 2024)

How the values were obtained:
Format in all cases: in vivo
[1] = test system: ABUTH (Abutylon threophrasti); test: Post-emergence herbicidal action against ABUTH; conditions: visual assessment after about 3 weeks
Method: (§1) Seeds of monocotyledonous and dicotyledonous weed and crop plants are laid out in sandy loam soil in wood-fiber pots, covered with soil and cultivated in a greenhouse under good growth conditions. 2 to 3 weeks after sowing, the trial plants are treated at the one-leaf stage. The compounds of the invention, formulated in the form of wettable powders (WP) or as emulsion concentrates (EC), are then sprayed onto the green parts of the plants as aqueous suspension or emulsion at a water application rate equating to 600 to 800 l/ha with addition of 0.2% wetting agent. After the test plants have been left to stand in the greenhouse under optimal growth conditions for about 3 weeks, the action of the preparations is assessed visually in comparison to untreated controls (herbicidal action in percent (%): 100% activity=the plants have died, 0% activity=like control plants).

[2] = test system: AMARE (Amaranthus retroflexus); test: Post-emergence herbicidal action against AMARE; conditions: visual assessment after about 3 weeks
Method: as §1

[3] = test system: DIGSA (Digitaria sanguinalis); test: Post-emergence herbicidal action against DIGSA; conditions: visual assessment after about 3 weeks
Method: as §1

[4] = test system: LOLRI (Lolium rigidum); test: Post-emergence herbicidal action against LOLRI; conditions: visual assessment after about 3 weeks
Method: as §1

[5] = test system: MATIN (Matricaria inodora); test: Post-emergence herbicidal action against MATIN; conditions: visual assessment after about 3 weeks
Method: as §1

[6] = test system: PHBPU (Pharbitis purpurea); test: Post-emergence herbicidal action against PHBPU; conditions: visual assessment after about 3 weeks
Method: as §1

[7] = test system: POLCO (Polygonum convolvulus); test: Post-emergence herbicidal action against POLCO; conditions: visual assessment after about 3 weeks
Method: as §1

[8] = test system: SETVI (Setaria viridis); test: Post-emergence herbicidal action against SETVI; conditions: visual assessment after about 3 weeks
Method: as §1

[9] = test system: VERPE (Veronica persica); test: Post-emergence herbicidal action against VERPE; conditions: visual assessment after about 3 weeks
Method: as §1

[10] = test system: VIOTR (Viola tricolor); test: Post-emergence herbicidal action against VIOTR; conditions: visual assessment after about 3 weeks
Method: as §1

[11] = test system: KCHSC (Kochia scoparia); test: Post-emergence herbicidal action against KCHSC; conditions: visual assessment after about 3 weeks
Method: as §1

[12] = test system: ABUTH (Abutylon threophrasti); test: Pre-emergence herbicidal effect against ABUTH; conditions: scored visually after 3 weeks
Source text: (§2) Seeds of monocotyledonous and dicotyledonous weed plants and crop plants are laid out in sandy loam soil in wood-fiber pots and covered with soil. The compounds of the invention, formulated in the form of wettable powders (WP) or as emulsion concentrates (EC), are then applied to the surface of the covering soil as aqueous suspension or emulsion at a water application rate equating to 600 to 800 l/ha with addition of 0.2% wetting agent. After the treatment, the pots are placed in a greenhouse and kept under good growth conditions for the trial plants. The damage to the test plants is scored visually after a test period of 3 weeks by comparison with untreated controls (herbicidal activity in percent (%): 100% activity=the plants have died, 0% activity=like control plants).

[13] = test system: ALOMY (Alopecurus myosuroides); test: Pre-emergence herbicidal effect against ALOMY; conditions: 80 g/ha, scored visually after 3 weeks
Source text: as §2

[14] = test system: AMARE (Amaranthus retroflexus); test: Pre-emergence herbicidal effect against AMARE; conditions: scored visually after 3 weeks
Source text: as §2

[15] = test system: AVEFA (Avena fatua); test: Pre-emergence herbicidal effect against AVEFA; conditions: scored visually after 3 weeks
Source text: as §2

[16] = test system: DIGSA (Digitaria sanguinalis); test: Pre-emergence herbicidal effect against DIGSA; conditions: scored visually after 3 weeks
Source text: as §2

[17] = test system: ECHCG (Echinochloa crus-galli); test: Pre-emergence herbicidal effect against ECHCG; conditions: scored visually after 3 weeks
Source text: as §2

[18] = test system: LOLRI (Lolium rigidum); test: Pre-emergence herbicidal effect against LOLRI; conditions: scored visually after 3 weeks
Source text: as §2

[19] = test system: MATIN (Matricaria inodora); test: Pre-emergence herbicidal effect against MATIN; conditions: scored visually after 3 weeks
Source text: as §2

[20] = test system: PHBPU (Pharbitis purpurea); test: Pre-emergence herbicidal effect against PHBPU; conditions: scored visually after 3 weeks
Source text: as §2

[21] = test system: POLCO (Polygonum convolvulus); test: Pre-emergence herbicidal effect against POLCO; conditions: scored visually after 3 weeks
Source text: as §2

[22] = test system: SETVI (Setaria viridis); test: Pre-emergence herbicidal effect against SETVI; conditions: scored visually after 3 weeks
Source text: as §2

[23] = test system: VERPE (Veronica persica); test: Pre-emergence herbicidal effect against VERPE; conditions: 80 g/ha, scored visually after 3 weeks
Source text: as §2

[24] = test system: VIOTR (Viola tricolor); test: Pre-emergence herbicidal effect against VIOTR; conditions: scored visually after 3 weeks
Source text: as §2

[25] = test system: KCHSC (Kochia scoparia); test: Pre-emergence herbicidal effect against KCHSC; conditions: scored visually after 3 weeks
Source text: as §2

In the case of `CS(=O)(=O)c1c(OC(F)(F)F)ccc(C(=O)Nc2nnco2)c1Cl` [Example 1-35, 2-chloro-3-(methylsulfonyl)-N-(1,3,4-oxadiazol-2-yl)-4-(trifluoromethoxy)benzamide], the “Post-emergence effect at 20 g/ha against ABUTH in %” value ([1]; 20 g/ha) is reported as 80%, the “Post-emergence effect at 80 g/ha against ABUTH in %” value [1] is reported as 90% and the “Post-emergence effect at 20 g/ha against AMARE in %” value [2] is reported as 90%. The “Post-emergence effect at 80 g/ha against AMARE in %” value [2] was 90%, the “Post-emergence effect at 20 g/ha against DIGSA in %” value [3] was 90% and the “Post-emergence effect at 80 g/ha against DIGSA in %” value [3] was 100%. The “Post-emergence effect at 80 g/ha against LOLRI in %” value [4] was 80%, the “Post-emergence effect at 20 g/ha against MATIN in %” value ([5]; 20 g/ha) was 90% and the “Post-emergence effect at 80 g/ha against MATIN in %” value ([5]; 80 g/ha) was 100%. For the same molecule, the “Post-emergence effect at 20 g/ha against PHBPU in %” value ([6]; 20 g/ha) was 90%, the “Post-emergence effect at 80 g/ha against PHBPU in %” value ([6]; 80 g/ha) was 100% and the “Post-emergence effect at 20 g/ha against POLCO in %” value ([7]; 20 g/ha) was 80%. For the same molecule, the “Post-emergence effect at 80 g/ha against POLCO in %” value ([7]; 80 g/ha) was 100%, the “Post-emergence effect at 20 g/ha against SETVI in %” value [8] was 100% and the “Post-emergence effect at 80 g/ha against SETVI in %” value [8] was 100%. The “Post-emergence effect at 20 g/ha against VERPE in %” value ([9]; 20 g/ha) was 90%, the “Post-emergence effect at 80 g/ha against VERPE in %” value ([9]; 80 g/ha) was 100% and the “Post-emergence effect at 20 g/ha against VIOTR in %” value [10] was 100%. For the same molecule, the “Post-emergence effect at 80 g/ha against VIOTR in %” value [10] was 100%, the “Post-emergence effect at 20 g/ha against KCHSC in %” value [11] was 100% and the “Post-emergence effect at 80 g/ha against KCHSC in %” value [11] was 100%. The “Pre-emergence effect at 20 g/ha against ABUTH in %” value ([12]; 20 g/ha) was 90%, the “Pre-emergence effect at 80 g/ha against ABUTH in %” value [12] was 100% and the “Pre-emergence effect at 80 g/ha against ALOMY in %” value [13] was 80%. For the same molecule, the “Pre-emergence effect at 20 g/ha against AMARE in %” value [14] was 100%, the “Pre-emergence effect at 80 g/ha against AMARE in %” value [14] was 100% and the “Pre-emergence effect at 20 g/ha against AVEFA in %” value ([15]; 20 g/ha) was 90%. The “Pre-emergence effect at 80 g/ha against A VEFA in %” value ([15]; 80 g/ha) was 100%, the “Pre-emergence effect at 20 g/ha against DIGSA in %” value [16] was 100% and the “Pre-emergence effect at 80 g/ha against DIGSA in %” value [16] was 100%. The “Pre-emergence effect at 20 g/ha against ECHCG in %” value ([17]; 20 g/ha) was 100%, the “Pre-emergence effect at 80 g/ha against ECHCG in %” value [17] was 100% and the “Pre-emergence effect at 20 g/ha against LOLRI in %” value ([18]; 20 g/ha) was 80%. The “Pre-emergence effect at 80 g/ha against LOLRI in %” value ([18]; 80 g/ha) was 90%, the “Pre-emergence effect at 20 g/ha against MATIN in %” value ([19]; 20 g/ha) was 100% and the “Pre-emergence effect at 80 g/ha against MATIN in %” value ([19]; 80 g/ha) was 100%. The “Pre-emergence effect at 20 g/ha against PHBPU in %” value ([20]; 20 g/ha) was 80%, the “Pre-emergence effect at 80 g/ha against PHBPU in %” value ([20]; 80 g/ha) was 100% and the “Pre-emergence effect at 20 g/ha against POLCO in %” value ([21]; 20 g/ha) was 90%. The “Pre-emergence effect at 80 g/ha against POLCO in %” value [21] was 100%, the “Pre-emergence effect at 20 g/ha against SETVI in %” value ([22]; 20 g/ha) was 100% and the “Pre-emergence effect at 80 g/ha against SETVI in %” value [22] was 100%. For the same molecule, the “Pre-emergence effect at 80 g/ha against VERPE in %” value [23] was 100%, the “Pre-emergence effect at 20 g/ha against VIOTR in %” value [24] was 100% and the “Pre-emergence effect at 80 g/ha against VIOTR in %” value [24] was 100%. For the same molecule, the “Pre-emergence effect at 20 g/ha against KCHSC in %” value [25] was 100% and the “Pre-emergence effect at 80 g/ha against KCHSC in %” value [25] was 100%.
In the case of `CSc1c(OC(F)F)ccc(C(=O)Nc2nnco2)c1Cl` [Example 1-21, 2-chloro-4-(difluoromethoxy)-3-(methylsulfanyl)-N-(1,3,4-oxadiazol-2-yl)benzamide], the “Post-emergence effect at 80 g/ha against ABUTH in %” value [1] is reported as 80%, the “Post-emergence effect at 20 g/ha against AMARE in %” value [2] is reported as 100% and the “Post-emergence effect at 80 g/ha against AMARE in %” value [2] is reported as 100%. For the same molecule, the “Post-emergence effect at 20 g/ha against DIGSA in %” value [3] was 90%, the “Post-emergence effect at 80 g/ha against DIGSA in %” value [3] was 90% and the “Post-emergence effect at 20 g/ha against SETVI in %” value [8] was 80%. For the same molecule, the “Post-emergence effect at 80 g/ha against SETVI in %” value [8] was 100%, the “Post-emergence effect at 20 g/ha against VIOTR in %” value [10] was 100% and the “Post-emergence effect at 80 g/ha against VIOTR in %” value [10] was 100%. The “Post-emergence effect at 20 g/ha against KCHSC in %” value [11] was 90%, the “Post-emergence effect at 80 g/ha against KCHSC in %” value [11] was 100% and the “Pre-emergence effect at 80 g/ha against ABUTH in %” value [12] was 100%. The “Pre-emergence effect at 20 g/ha against AMARE in %” value [14] was 90%, the “Pre-emergence effect at 80 g/ha against AMARE in %” value [14] was 100% and the “Pre-emergence effect at 20 g/ha against DIGSA in %” value [16] was 90%. The “Pre-emergence effect at 80 g/ha against DIGSA in %” value [16] was 100%, the “Pre-emergence effect at 80 g/ha against ECHCG in %” value [17] was 100% and the “Pre-emergence effect at 80 g/ha against POLCO in %” value [21] was 100%. For the same molecule, the “Pre-emergence effect at 80 g/ha against SETVI in %” value [22] was 90%, the “Pre-emergence effect at 20 g/ha against VIOTR in %” value [24] was 100% and the “Pre-emergence effect at 80 g/ha against VIOTR in %” value [24] was 100%. For the same molecule, the “Pre-emergence effect at 20 g/ha against KCHSC in %” value [25] was 90% and the “Pre-emergence effect at 80 g/ha against KCHSC in %” value [25] was 90%.
